# Results from paper PMC4709569, “A Novel Naturally Occurring Class I 5-Enolpyruvylshikimate-3-Phosphate Synthase from Janibacter sp. Confers High Glyphosate Tolerance to Rice” (Scientific Reports, 2016).
# Assays:
# [1] = tested on: O=C(O)C1=C[C@@H](OP(=O)(O)O)[C@@H](O)[C@H](O)C1; assay: purified protein; conditions: S3P 0.05-1 mM, PEP fixed 1.0 mM, 50 mM Hepes pH 7.0, 28 °C
# C=C(OP(=O)(O)O)C(=O)O = assay: purified protein; conditions: PEP 0.05-1 mM, S3P fixed 1.0 mM, 50 mM Hepes pH 7.0, 28 °C
# aroAJ. sp [2] = target: T1, aroAJ. sp (Janibacter sp. YB324, UniProt Z9JWC7BZZ5); assay: malachite green phosphate release, dose-response fit; type: biochemical; conditions: 1 mM PEP, 1 mM S3P; glyphosate 0.0001-100 mM; 50 mM Hepes pH 7.0, 28 °C, KCl present
# T1 construct: pGEX-6p-1 BamHI/EcoRI, E. coli BL21(DE3); GST tag removed by 3C protease; HTCC2649
# Text: malachite green phosphate release, dose-response fit on aroAJ. sp
# aroAE. coli [3] = target: T2, aroAE. coli (Escherichia coli, UniProt P0A6D3); assay: malachite green phosphate release, Lineweaver-Burk; type: biochemical; conditions: read-out: Ki ^c
# T2 construct: gene aroA; full length; pGEX-6p-1 BamHI/EcoRI, E. coli BL21(DE3); GST tag removed by 3C protease; similar size to aroAJ. sp (47 kDa on gel)
# T2 sequence (P0A6D3 whole entry): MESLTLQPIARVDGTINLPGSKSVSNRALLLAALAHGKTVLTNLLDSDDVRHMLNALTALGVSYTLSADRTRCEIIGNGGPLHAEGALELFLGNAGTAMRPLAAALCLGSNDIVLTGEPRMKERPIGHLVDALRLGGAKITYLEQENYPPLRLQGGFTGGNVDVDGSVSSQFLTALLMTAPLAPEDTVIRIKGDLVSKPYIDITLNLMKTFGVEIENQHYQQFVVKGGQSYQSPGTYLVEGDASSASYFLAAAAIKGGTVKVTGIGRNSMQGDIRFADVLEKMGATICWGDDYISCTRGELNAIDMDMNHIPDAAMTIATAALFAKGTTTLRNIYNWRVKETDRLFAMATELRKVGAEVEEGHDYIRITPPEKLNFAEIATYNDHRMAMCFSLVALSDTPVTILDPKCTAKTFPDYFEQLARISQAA
# Text: malachite green phosphate release, Lineweaver-Burk on aroAE. coli
# aroAJ. sp [4] = target: T1, aroAJ. sp; assay: malachite green phosphate release, Lineweaver-Burk; type: biochemical; conditions: competitive with respect to PEP; PEP 0.067-0.5 mM, S3P 1 mM; glyphosate 0-5 mM; 50 mM Hepes pH 7.0, 28 °C, KCl present
# Text: malachite green phosphate release, Lineweaver-Burk on aroAJ. sp
# aroAE. coli [5] = target: T2, aroAE. coli; assay: malachite green phosphate release, dose-response fit; type: biochemical
# Text: malachite green phosphate release, dose-response fit on aroAE. coli
Molecule,Km [1] [µM],Km (C=C(OP(=O)(O)O)C(=O)O) [µM],IC50 (aroAJ. sp [2]) [µM],Ki (aroAE. coli [3]) [µM],Ki (aroAJ. sp [4]) [µM],IC50 (aroAE. coli [5]) [µM]
aroAE. coli (Escherichia coli K-12),115 ± 10,60 ± 7,,,,
O=C(O)CNCP(=O)(O)O [glyphosate],,,3600 ± 200,0.9 ± 0.09,373 ± 50,40 ± 10
